How the values were obtained:
[1] = test system: E. cloacae NCTC 11936; assay: Nitroreductase substrate in Columbia medium, growth and colony color; format: cell-based; conditions: 40 mg substrate in 400 ml Columbia medium, 24 hours at 37° C., colonies examined visually
Method: (§1) 40 mg of substrate were dissolved in 4 ml of dimethylsulfoxide and added to 400 ml of previously autoclaved Columbia medium. The medium was distributed in Petri dishes 90 mm in diameter at the rate of 20 ml per dish. Ten strains of microorganisms obtained from collections and belonging to various species of bacteria and yeasts are inoculated as spots of about 10 000 colony forming units. The media are incubated for 24 hours at 37° C. and then the colonies formed are examined visually.

[2] = test system: P. rettgeri NCTC 7475; assay: as above; format: cell-based; conditions: 40 mg substrate in 400 ml Columbia medium, 24 hours at 37° C., colonies examined visually
Method: as §1

Color [1]: Pale pink | Color [2]: Pale pink
Structure (SMILES): C[N+]1=C(C=Cc2ccc([N+](=O)[O-])cc2)C(C)(C)c2ccccc21.[I-] [Iodinated 2-(4-nitrostyryl)-1,3,3-trimethylindolinium]

Reference: patent publication US8883437B2, “Nitroreductase enzymatic substrates” (bioMérieux S.A., priority 2010, dated 2014)
